Assay: xn = mol fraction of the nth substance listed
Conditions: Liquid, Vibrating tube method

CC1(C)C(=O)[C@]2(C)CC[C@H]1C2 [(-)-fenchone] + CCO
mass density [kg/m3]
Conditions	101 kPa	20000 kPa	25000 kPa	30000 kPa	35000 kPa	40000 kPa
283.15 K, x1 = 0.0481	817.48	–	–	–	–	–
283.15 K, x1 = 0.051	–	833.5	837	840.3	843.4	846.5
283.15 K, x1 = 0.0985	834.96	–	–	–	–	–
283.15 K, x1 = 0.0992	–	849.7	853.1	856.3	859.4	862.5
283.15 K, x1 = 0.199	–	876.6	879.9	883	886	889
283.15 K, x1 = 0.2002	862.89	–	–	–	–	–
283.15 K, x1 = 0.3002	883.74	–	–	–	–	–
283.15 K, x1 = 0.301	–	897.5	900.6	903.7	906.6	909.5
283.15 K, x1 = 0.3968	–	913	916.1	919.1	922	924.8
283.15 K, x1 = 0.4031	900.59	–	–	–	–	–
283.15 K, x1 = 0.4976	–	926.2	929.2	932.2	935	937.8
283.15 K, x1 = 0.5012	913.56	–	–	–	–	–
283.15 K, x1 = 0.5924	–	936.5	939.4	942.3	945.2	947.9
283.15 K, x1 = 0.5976	924.09	–	–	–	–	–
283.15 K, x1 = 0.6956	–	945.8	948.7	951.6	954.4	957.1
283.15 K, x1 = 0.697	933.16	–	–	–	–	–
283.15 K, x1 = 0.7897	940.31	–	–	–	–	–
283.15 K, x1 = 0.7942	–	953.4	956.3	959.1	961.9	964.6
283.15 K, x1 = 0.8929	–	959.7	962.6	965.5	968.2	970.9
283.15 K, x1 = 0.899	947.57	–	–	–	–	–
283.15 K, x1 = 0.9454	–	962.8	965.7	968.5	971.2	973.8
283.15 K, x1 = 0.9486	950.46	–	–	–	–	–
283.15 K, x1 = 1	953.27	965.6	968.5	971.3	974	976.6
298.15 K, x1 = 0.0481	804.6	–	–	–	–	–
298.15 K, x1 = 0.051	–	822	825.6	829.1	832.5	835.7
298.15 K, x1 = 0.0985	822.02	–	–	–	–	–
298.15 K, x1 = 0.0992	–	838	841.6	845	848.3	851.5
298.15 K, x1 = 0.199	–	864.9	868.3	871.7	874.8	877.9
298.15 K, x1 = 0.2002	849.9	–	–	–	–	–
298.15 K, x1 = 0.3002	870.72	–	–	–	–	–
298.15 K, x1 = 0.301	–	885.7	889.1	892.3	895.4	898.4
298.15 K, x1 = 0.3968	–	901.1	904.4	907.6	910.6	913.6
298.15 K, x1 = 0.4031	887.59	–	–	–	–	–
298.15 K, x1 = 0.4976	–	914.3	917.6	920.7	923.7	926.7
298.15 K, x1 = 0.5012	900.59	–	–	–	–	–
298.15 K, x1 = 0.5924	–	924.6	927.8	930.9	933.9	936.7
298.15 K, x1 = 0.5976	911.15	–	–	–	–	–
298.15 K, x1 = 0.6956	–	934	937.1	940.2	943.2	946
298.15 K, x1 = 0.697	920.28	–	–	–	–	–
298.15 K, x1 = 0.7897	927.48	–	–	–	–	–
298.15 K, x1 = 0.7942	–	941.6	944.7	947.7	950.6	953.5
298.15 K, x1 = 0.8929	–	948.1	951.1	954.1	957	959.8
298.15 K, x1 = 0.899	934.83	–	–	–	–	–
298.15 K, x1 = 0.9454	–	951.2	954.2	957.2	960.1	962.9
298.15 K, x1 = 0.9486	937.77	–	–	–	–	–
298.15 K, x1 = 1	940.67	954	957.1	960	962.9	965.7

— the NIST ThermoML archive (doi:10.1016/j.jct.2013.09.024)
